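Test compounds were applied to cells in 96-well plates for 48 hours at 5 doses. Abbreviation: GI50, concentration required for 50% inhibition of growth.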 The source made the active and inactive calls. Rule as the data show it: active = GI50 up to about 1.1 µM and inactive = higher.
How the values were obtained:
Experiment in all cases: NCI tumour cell line growth inhibition, 48 h
CCRF-CEM = tested on: CCRF-CEM
COLO 205 = tested on: COLO 205
HCC 2998 = tested on: HCC 2998
HOP-62 = tested on: HOP-62
HOP-92 = tested on: HOP-92
HT-29 = tested on: HT-29
Hs-578T = tested on: Hs-578T
KM12 = tested on: KM12
M14 = tested on: M14
MDA-N = tested on: MDA-N
Malme-3M = tested on: Malme-3M
NCI/ADR-RES = tested on: NCI/ADR-RES
OVCAR-5 = tested on: OVCAR-5
RXF 393 = tested on: RXF 393
SK-MEL-5 = tested on: SK-MEL-5
SN12C = tested on: SN12C
SNB-19 = tested on: SNB-19
SW-620 = tested on: SW-620
UO-31 = tested on: UO-31
SNB-78 = tested on: SNB-78

Compound	GI50 (CCRF-CEM)	GI50 (COLO 205)	GI50 (HCC 2998)	GI50 (HOP-62)	GI50 (HOP-92)	GI50 (HT-29)	GI50 (Hs-578T)	GI50 (KM12)	GI50 (M14)	GI50 (MDA-N)	GI50 (Malme-3M)	GI50 (NCI/ADR-RES)	GI50 (OVCAR-5)	GI50 (RXF 393)	GI50 (SK-MEL-5)	GI50 (SN12C)	GI50 (SNB-19)	GI50 (SW-620)	GI50 (UO-31)	GI50 (SNB-78)
C=CC1C(OC2OC(CO)C(O)C(O)C2O)OC=C(C(=O)OC)C1CC1CC(=O)CC(CCc2ccc(O)cc2)O1 (configuration not stated)	> 100 µM (inactive)	> 100 µM (inactive)	> 100 µM (inactive)	> 100 µM (inactive)	> 100 µM (inactive)	> 100 µM (inactive)	> 100 µM (inactive)	> 100 µM (inactive)	> 100 µM (inactive)	> 100 µM (inactive)	> 100 µM (inactive)	> 100 µM (inactive)	> 100 µM (inactive)	> 100 µM (inactive)	> 100 µM (inactive)	> 100 µM (inactive)	> 100 µM (inactive)	> 100 µM (inactive)	> 100 µM (inactive)	–
CC(=O)NNc1nc(C)c(C(/C=C/c2ccccc2O)=N/NC(=O)c2ccncc2)s1	> 100 µM (inactive)	> 100 µM (inactive)	> 100 µM (inactive)	> 100 µM (inactive)	> 100 µM (inactive)	> 100 µM (inactive)	> 100 µM (inactive)	> 100 µM (inactive)	> 100 µM (inactive)	> 100 µM (inactive)	> 100 µM (inactive)	> 100 µM (inactive)	> 100 µM (inactive)	> 100 µM (inactive)	> 100 µM (inactive)	> 100 µM (inactive)	> 100 µM (inactive)	> 100 µM (inactive)	> 100 µM (inactive)	–
CC(=O)CCC[C@@H](C)[C@@H]1O[C@H]([C@@]2(C)CCC(=O)O2)C[C@H]2C(CSc3ccccc3)C(=O)O[C@@H]12 (some centres not stated)	3.3 µM (inactive)	15.6 µM (inactive)	15.3 µM (inactive)	65.2 µM (inactive)	16.3 µM (inactive)	17 µM (inactive)	12.4 µM (inactive)	15.1 µM (inactive)	13.3 µM (inactive)	13.8 µM (inactive)	8.09 µM (inactive)	17.7 µM (inactive)	15.1 µM (inactive)	4.16 µM (inactive)	21.4 µM (inactive)	14.9 µM (inactive)	33.4 µM (inactive)	10.3 µM (inactive)	14.2 µM (inactive)	–
O=c1cccccc1NCCOCCNc1cccccc1=O	> 100 µM (inactive)	> 100 µM (inactive)	> 100 µM (inactive)	> 100 µM (inactive)	–	> 100 µM (inactive)	–	> 100 µM (inactive)	> 100 µM (inactive)	–	> 100 µM (inactive)	–	> 100 µM (inactive)	–	> 100 µM (inactive)	> 100 µM (inactive)	> 100 µM (inactive)	> 100 µM (inactive)	> 100 µM (inactive)	> 100 µM (inactive)
Cc1ccc2nc(/C(=C/c3ccc(/C=C(\NC(=O)c4ccccc4)c4nc5ccc(C)cc5[nH]4)c(C)c3)NC(=O)c3ccccc3)[nH]c2c1	3.02 µM (inactive)	25.1 µM (inactive)	–	46.6 µM (inactive)	16.4 µM (inactive)	28.1 µM (inactive)	–	17.1 µM (inactive)	23 µM (inactive)	–	7.29 µM (inactive)	–	19.6 µM (inactive)	–	1.91 µM (inactive)	5.5 µM (inactive)	31.2 µM (inactive)	5.92 µM (inactive)	9.12 µM (inactive)	23.1 µM (inactive)
NS(=O)(=O)c1ccc(NCc2cccc3c(=O)c4ccc(Cl)cc4oc23)cc1	4.75 µM (inactive)	55.1 µM (inactive)	> 82.4 µM (inactive)	39.7 µM (inactive)	12.6 µM (inactive)	31.4 µM (inactive)	20 µM (inactive)	21.4 µM (inactive)	27.8 µM (inactive)	23.1 µM (inactive)	12.3 µM (inactive)	32.5 µM (inactive)	> 100 µM (inactive)	27.1 µM (inactive)	59.4 µM (inactive)	> 56.6 µM (inactive)	8.07 µM (inactive)	6.38 µM (inactive)	25.5 µM (inactive)	–
Nc1nccc(-c2c[nH]c3cc(Br)ccc23)n1 [MERIDIANIN D]	41.1 µM (inactive)	18.7 µM (inactive)	25.1 µM (inactive)	30 µM (inactive)	23.7 µM (inactive)	20.3 µM (inactive)	25.9 µM (inactive)	24.2 µM (inactive)	24.5 µM (inactive)	21 µM (inactive)	34.8 µM (inactive)	30.8 µM (inactive)	17.5 µM (inactive)	15.5 µM (inactive)	18.9 µM (inactive)	21.7 µM (inactive)	20.7 µM (inactive)	33.3 µM (inactive)	18.7 µM (inactive)	–
CC(C)(C)c1cc(C(P(=O)(c2ccccc2)c2ccccc2)P(=O)(c2ccccc2)c2ccccc2)cc(C(C)(C)C)c1O	2.21 µM (inactive)	1.87 µM (inactive)	1.72 µM (inactive)	2.56 µM (inactive)	2.43 µM (inactive)	2.08 µM (inactive)	2.48 µM (inactive)	1.8 µM (inactive)	1.75 µM (inactive)	1.91 µM (inactive)	2.47 µM (inactive)	2.12 µM (inactive)	2.56 µM (inactive)	3.19 µM (inactive)	1.54 µM (inactive)	3.39 µM (inactive)	3.44 µM (inactive)	3.21 µM (inactive)	2.24 µM (inactive)	–
CN1C(=O)C(O)CC1c1ccc(C(F)(F)F)cc1 (configuration not stated)	> 100 µM (inactive)	> 100 µM (inactive)	> 100 µM (inactive)	> 100 µM (inactive)	> 100 µM (inactive)	> 100 µM (inactive)	> 100 µM (inactive)	> 100 µM (inactive)	> 100 µM (inactive)	> 100 µM (inactive)	> 100 µM (inactive)	> 100 µM (inactive)	> 100 µM (inactive)	> 100 µM (inactive)	> 100 µM (inactive)	> 100 µM (inactive)	> 100 µM (inactive)	> 100 µM (inactive)	> 100 µM (inactive)	–
Clc1cc(Cl)cc(C2ON=C(c3ccccc3)N2C23CC4CC(CC(C4)C2)C3)c1 (configuration not stated)	> 10 µM (inactive)	> 10 µM (inactive)	> 10 µM (inactive)	> 10 µM (inactive)	0.643 µM (active)	> 10 µM (inactive)	> 10 µM (inactive)	> 10 µM (inactive)	> 10 µM (inactive)	> 10 µM (inactive)	> 10 µM (inactive)	> 10 µM (inactive)	> 10 µM (inactive)	> 10 µM (inactive)	> 10 µM (inactive)	> 10 µM (inactive)	> 10 µM (inactive)	> 10 µM (inactive)	> 10 µM (inactive)	–
COc1cc(Br)cc2nc(-c3cccs3)oc12	> 100 µM (inactive)	> 100 µM (inactive)	> 100 µM (inactive)	24.5 µM (inactive)	> 63.5 µM (inactive)	> 100 µM (inactive)	31.3 µM (inactive)	> 100 µM (inactive)	> 100 µM (inactive)	> 100 µM (inactive)	> 100 µM (inactive)	> 100 µM (inactive)	> 100 µM (inactive)	45.6 µM (inactive)	74.1 µM (inactive)	> 100 µM (inactive)	> 83 µM (inactive)	> 100 µM (inactive)	> 54.7 µM (inactive)	–
N#C/C(=C\c1ccc(Cl)cc1)c1nc(-c2cc3ccccc3oc2=O)cs1	> 100 µM (inactive)	> 100 µM (inactive)	57.5 µM (inactive)	24.8 µM (inactive)	15.7 µM (inactive)	> 100 µM (inactive)	8.87 µM (inactive)	74.1 µM (inactive)	51.5 µM (inactive)	59.8 µM (inactive)	41.7 µM (inactive)	39.6 µM (inactive)	> 100 µM (inactive)	83 µM (inactive)	90.4 µM (inactive)	70.3 µM (inactive)	43.6 µM (inactive)	> 100 µM (inactive)	80.7 µM (inactive)	–
O=S(=O)(c1ccccc1)c1nccs1	–	> 100 µM (inactive)	> 100 µM (inactive)	> 100 µM (inactive)	–	> 100 µM (inactive)	–	> 100 µM (inactive)	> 100 µM (inactive)	–	–	–	> 100 µM (inactive)	–	> 100 µM (inactive)	> 100 µM (inactive)	> 100 µM (inactive)	> 100 µM (inactive)	> 100 µM (inactive)	> 100 µM (inactive)
NNC(=O)N/N=C1/C(=O)N(c2ccc(Cl)c(Cl)c2)C(=O)C(=O)C1c1nc2ccccc2o1 (configuration not stated)	> 100 µM (inactive)	> 100 µM (inactive)	> 100 µM (inactive)	> 100 µM (inactive)	> 100 µM (inactive)	> 100 µM (inactive)	–	–	> 100 µM (inactive)	–	> 100 µM (inactive)	–	> 100 µM (inactive)	–	> 100 µM (inactive)	> 100 µM (inactive)	29.5 µM (inactive)	> 100 µM (inactive)	> 100 µM (inactive)	> 100 µM (inactive)
CC(C)(C)C1=CC(=CC=C2C=CN(CCCCCCCCCCCO)C=C2)C=C(C(C)(C)C)C1=O	0.652 µM (active)	1.69 µM (inactive)	0.838 µM (active)	1.74 µM (inactive)	1.83 µM (inactive)	3.37 µM (inactive)	1.87 µM (inactive)	1.83 µM (inactive)	1.75 µM (inactive)	1.87 µM (inactive)	1.46 µM (inactive)	2.96 µM (inactive)	2.48 µM (inactive)	0.9 µM (active)	1.73 µM (inactive)	1.25 µM (inactive)	1.58 µM (inactive)	2.19 µM (inactive)	1.76 µM (inactive)	–

Reference: ChEMBL document CHEMBL1201862, “PubChem BioAssay data set” (2004)
